The first experiment has as its target T1, KRAS G12C 1-169, his-tagged protein, GDP-loaded (Homo sapiens, UniProt P01116, G12C).
T1 construct: KRAS G12C 1-169, his-tagged protein, GDP-loaded
Description: Biochemical assay: covalent binding to KRAS G12C analyzed by mass spectrometry. The following applies: compounds 247-342, measured at 30 min. On the procedure: Compounds were tested for activity as follows:
Compounds were diluted to 50× final test concentration in DMSO in 96-well storage plates. […] Reactions were mixed carefully and thoroughly by pipetting up/down with a 200 μl multi-channel pipettor. […] 5 μl of 2% formic acid (Fisher cat#A117) in DI H2O was then added to each well followed by mixing with a pipette. The plate was then resealed with aluminum seal and stored on dry ice until analyzed as described below.
The above described assays were analyzed by mass spectrometry according to the following procedure:
The MS instrument is set to positive polarity, 2 GHz resolution, and low mass (1700) mode and allowed to equilibrate for 30 minutes. The instrument is then calibrated, switched to acquisition mode and the appropriate method loaded.
After another 30 minute equilibration time, a blank batch (i.e., buffer) is run to ensure equipment is operating properly. The samples are thawed at 37° C. for 10 minutes, briefly centrifuged, and transfer to the bench top. Wells A1 and H12 are spiked with 1 μL 500 μM internal standard peptide, and the plates centrifuged at 2000×g for 5 minutes. The method is then run and masses of each individual well recorded.
The masses (for which integration data is desired) for each well are pasted into the platemap and exported from the analysis. Masses for the internal standards are exported as well. The data at 50 ppm is extracted for the +19 charge state, and identity of well A1 is assigned using the internal standard spike and integrated. Peak data is exported as a TOF list and the above steps are repeated individually, for the +20, 21, 22, 23, 24, and 25 charge states.
As to `C=CC(=O)N1CCN(c2ncnc3c(F)c(-c4ccc(F)cc4F)c(F)cc23)CC1` [Compound 296], the Binding % entry is reported as “+ (+indicates binding activity from 5% to 25%)”. Still for that read-out and setting: to `C=CC(=O)N1CCN(c2ncnc3c(F)c(-c4c(C)ccc5[nH]ncc45)c(F)cc23)CC1` [Compound 297, 1-(4-(6,8-difluoro-7-(5-methyl-1H-indazol-4-yl)quinazolin-4-yl)piperazin-1-yl)prop-2-en-1-one] belongs “+ (+indicates binding activity from 5% to 25%)”.

As for `C=CC(=O)N1CCN(c2ncnc3c(F)c(-c4c(C)ccc5cn[nH]c45)c(F)cc23)CC1` [Compound 298, 1-(4-(6,8-difluoro-7-(6-methyl-1H-indazol-7-yl)-quinazolin-4-yl)piperazin-1-yl)prop-2-en-1-one], the Binding % entry was “++ (++indicates binding activity greater than 25% and up to 50%)”. Still for that read-out and setting: to `C=CC(=O)N1CCN(c2ncnc3c(F)c(-c4c(O)cccc4F)c(F)cc23)CC1` [Compound 299, 1-(4-(6,8-difluoro-7-(2-fluoro-6-hydroxyphenyl)quinazolin-4-yl)piperazin-1-yl)prop-2-en-1-one] belongs “+ (+indicates binding activity from 5% to 25%)”; to `C=CC(=O)N1CCN(c2nc(OC3CCOC3)nc3cc(-c4c(C)ccc5[nH]ncc45)c(Cl)cc23)CC1` (stereo not drawn) [Compound 300, 1-(4-(6-chloro-7-(5-methyl-1H-indazol-4-yl)-2-(tetrahydrofuran-3-yloxy)quinazolin-4-yl)piperazin-1-yl)prop-2-en-1-one], “++ (++indicates binding activity greater than 25% and up to 50%)”; to `CN(C)C/C=C/C(=O)N1CCN(c2ncnc3c(F)c(-c4c(O)cccc4F)c(Cl)cc23)CC1` [Compound 301, (E)-1-(4-(6-chloro-8-fluoro-7-(2-fluoro-6-hydroxyphenyl)quinazolin-4-yl)piperazin-1-yl)-4-(dimethylamino)but-2-en-1-one], “++ (++indicates binding activity greater than 25% and up to 50%)”.

Consider `C=CC(=O)N1CCN(c2ncnc3c(Cl)c(-c4c(O)ccc5ccccc45)c(Cl)cc23)CC1` [Compound 303, 1-(4-(6,8-dichloro-7-(2-hydroxynaphthalen-1-yl)quinazolin-4-yl)piperazin-1-yl)prop-2-en-1-one], for which the Binding % entry was “++ (++indicates binding activity greater than 25% and up to 50%)”. The same measure, in the same setting: the entry for `C=CC(=O)N1CCN(c2nc(-c3cn[nH]c3)nc3c(F)c(-c4c(C)ccc5[nH]ncc45)c(Cl)cc23)CC1` [Compound 304, 1-(4-(6-chloro-8-fluoro-7-(5-methyl-1H-indazol-4-yl)-2-(1H-pyrazol-4-yl)quinazolin-4-yl)piperazin-1-yl)prop-2-en-1-one] is “++ (++indicates binding activity greater than 25% and up to 50%)”. Take `C=CC(=O)N1CCN(c2cnnc3cc(-c4c(C)ccc5[nH]ncc45)c(C(F)(F)F)cc23)CC1` [Compound 305, 1-(4-(7-(5-methyl-1H-indazol-4-yl)-6-(trifluoromethyl)cinnolin-4-yl)piperazin-1-yl)prop-2-en-1-one]: the Binding % entry is “++ (++indicates binding activity greater than 25% and up to 50%)”. On the same count and under the same terms, to `C=CC(=O)N1CCN(c2ncnc3c(OC)c(-c4ccc(F)cc4F)c(Cl)cc23)CC1` [Compound 306, 1-(4-(6-chloro-7-(2,4-difluorophenyl)-8-methoxyquinazolin-4-yl)piperazin-1-yl)prop-2-en-1-one] belongs “++ (++indicates binding activity greater than 25% and up to 50%)”; to `C=CC(=O)N1CCN(c2ncnc3c(F)c(-c4cc(C(F)F)ccc4F)c(Cl)cc23)CC1` [Compound 307, 1-(4-(6-chloro-7-(5-(difluoromethyl)-2-fluorophenyl)-8-fluoroquinazolin-4-yl)piperazin-1-yl)prop-2-en-1-one], “++ (++indicates binding activity greater than 25% and up to 50%)”.

For `C=CC(=O)N1CCN(c2c(C#N)cnc3c(F)c(-c4c(C)ccc5cn[nH]c45)c(Cl)cc23)CC1` [Compound 308, 4-(4-acryloylpiperazin-1-yl)-6-chloro-8-fluoro-7-(6-methyl-1H-indazol-7-yl)quinoline-3-carbonitrile], the Binding % result was “+++ (+++indicates binding activity greater than 50% and up to 75%)”. Consider `C=CC(=O)N1CCN(c2nc(-c3ccn[nH]3)nc3c(F)c(-c4c(C)ccc5[nH]ncc45)c(Cl)cc23)CC1` [Compound 309, 1-(4-(6-chloro-8-fluoro-7-(5-methyl-1H-indazol-4-yl)-2-(1H-pyrazol-5-yl)quinazolin-4-yl)piperazin-1-yl)prop-2-en-1-one], for which the Binding % entry is “+++ (+++indicates binding activity greater than 50% and up to 75%)”. Still for that read-out and setting: to `CN(C)C/C=C/C(=O)N1CCN(c2c(C#N)cnc3c(F)c(-c4cc(O)cc5ccccc45)c(Cl)cc23)CC1` [Compound 310, (E)-6-chloro-4-(4-(4-(dimethylamino)but-2-enoyl)piperazin-1-yl)-8-fluoro-7-(3-hydroxynaphthalen-1-yl)quinoline-3-carbonitrile] belongs “++++ (++++indicates binding activity greater than 75%)”. Same read-out and setting: the entry for `Cc1ccc2[nH]ncc2c1-c1c(Cl)cc2c(N3CCN(C(=O)/C=C/CN)CC3)ncnc2c1F` [Compound 311, (E)-4-amino-1-(4-(6-chloro-8-fluoro-7-(5-methyl-1H-indazol-4-yl)quinazolin-4-yl)piperazin-1-yl)but-2-en-1-one] is “+++ (+++indicates binding activity greater than 50% and up to 75%)”; for `C=CC(=O)N1CCN(c2nc(NC)nc3cc(-c4c(C)ccc5[nH]ncc45)c(Cl)cc23)CC1` [Compound 312, 1-(4-(6-chloro-7-(5-methyl-1H-indazol-4-yl)-2-(methylamino)quinazolin-4-yl)piperazin-1-yl)prop-2-en-1-one] it is “++++ (++++indicates binding activity greater than 75%)”.

As to `C=CC(=O)N1CCN(c2ncnc3c(OC)c(-c4c(O)cccc4F)c(Cl)cc23)CC1` [Compound 313, 1-(4-(6-chloro-7-(2-fluoro-6-hydroxyphenyl)-8-methoxyquinazolin-4-yl)piperazin-1-yl)prop-2-en-1-one], the Binding % entry was “+++ (+++indicates binding activity greater than 50% and up to 75%)”. In the case of `C=CC(=O)N1CCN(c2nc(OCCN(C)C)nc3cc(-c4c(C)ccc5[nH]ncc45)c(Cl)cc23)CC1` [Compound 314, 1-(4-(6-chloro-2-(2-(dimethylamino)ethoxy)-7-(5-methyl-1H-indazol-4-yl)quinazolin-4-yl)piperazin-1-yl)prop-2-en-1-one], the Binding % result is listed as “++++ (++++indicates binding activity greater than 75%)”. On the same count and under the same terms, the entry for `Cc1ccc2[nH]ncc2c1-c1c(Cl)cc2c(N3CCN(C(=O)/C=C/CO)CC3)ncnc2c1F` [Compound 315, (E)-1-(4-(6-chloro-8-fluoro-7-(5-methyl-1H-indazol-4-yl)quinazolin-4-yl)piperazin-1-yl)-4-hydroxybut-2-en-1-one] is “+ (+indicates binding activity from 5% to 25%)”; for `C=CC(=O)N1CCN(c2nc(OC3CCCOC3)nc3cc(-c4c(C)ccc5[nH]ncc45)c(Cl)cc23)CC1` (stereo not drawn) [Compound 316, 1-(4-(6-chloro-7-(5-methyl-1H-indazol-4-yl)-2-(tetrahydro-2H-pyran-3-yloxy)quinazolin-4-yl)piperazin-1-yl)prop-2-en-1-one] it is “++ (++indicates binding activity greater than 25% and up to 50%)”.

Staying with this experiment, now noted: determined at 24 hrs.
Take “1-(4-(2′,6-dichloro-4-methoxybiphenylcarbonyl)piperazin-1-yl)prop-2-en-1-one [III-1]”: the Binding % entry was “+ (+indicates binding activity from 5% to 10%)”.

These data come from patent US10111874B2, “Combination therapies for treatment of cancer” (Araxes Pharma LLC, priority 2014, dated 2018).
